Key:
juvenile S. mansoni = assay: In vitro drug sensitivity assay on juvenile S. mansoni; type: cell-based, Schistosoma mansoni; conditions: Schistosoma mansoni; 72 h incubation, 37 °C, 5% CO2
Experimental: Juvenile worms were gained through cultivation of NTS as previously described. 10 In short, NTS were obtained as described above, then directly after the mechanical transformation process the newly transformed schistosomula were placed in a special culturing medium. The culture medium consists of Panserin 401, w: L-Glutamine, serum free all-round medium (Pan Biotech, Aidenbach, Germany) supplemented with 20 % human serum and 500 U/mL penicillin, […] streptomycin (LuBioScience, Switzerland). 96-well transparent polystyrene flat bottom plates were used for the in vitro growth procedure, with 40 to 60 NTS per well in 100 µL culture medium. The bordering wells of the plate were filled solely with medium to counteract evaporation and to keep the humidity as steady as possible. The plates were incubated for 21 days at 5 % CO2 and at 37 °C, with regular medium changes every 3 to 4 days. After the 21 days culturing period, the schistosomulae developed into juveniles. For the drug sensitivity assay, juvenile worms were incubated over 72 h (5 % CO 2 and 37 °C) with the test compound in the same medium, as used for the culturing process. In a 96-well plate, 250 µL medium containing the test compound and six juvenile worms, ideally of both sexes were placed in each well. All compounds were tested twice independently at 50, 10, 5 and 1 µM in duplicates. The viability of the worms was evaluated microscopically after 24, 48 and 72 h of continuous drug exposure using the same phenotypic screening method as described before. […]

[1] = tested on: HUH7 hepatocarcinoma cells; assay: XTT mitochondrial activity/cell viability assay, HUH7; type: cell-based; conditions: 20 µM, 24 h, serum-free media, vs DMSO control (0.2%)
Experimental: Results were normalized to the DMSO control. […]
to, so that all test concentrations contained always the same amount of DMSO.
Additionally, 2 wells with negative controls containing only DMSO and the culture medium were included. After an incubation period of 72 h at 37 °C and 5 % CO 2, the worms were microscopically evaluated. The drug effect was determined 24, 48 and 72 h post-exposure based on the phenotype of the adult worms, using a viability scale ranging from three referring to viable, motile worms with no change in their tegument to zero standing for the death of the worms.
All described in vitro studies with mice involved, were conducted at the Swiss Tropical and Public Health Institute, first in Basel, later in Allschwil, and had the approval by the corresponding veterinary authorities of the Canton Basel-Stadt (permit no. 2070) […]
Following 24 h of incubation, 12.5 μL of an XTT/phenazine methosulfate (PMS) (XTT Sigma Aldrich cat X4626, PMS Serva CAT: 3203) 0.02solution (1 mg/mL XTT and 7.5 μg/mL PMS) was added to each well. Absorbance was measured using a microplate reader (Biotek Synergy HT) at 450 nm (signal) and 650 nm (background), 2 h after the addition of the XTT/PMS solution. […] Mean ± SD was determined from three independent experiments, each performed in quintuplicate. […]
The cytotoxic potential was additionally evaluated using the staining-based SYTOX viability assay. […]

[2] = tested on: S. mansoni newly transformed schistosomula (NTS); assay: In vitro evaluation on newly transformed schistosomula (NTS); type: cell-based, Schistosoma mansoni
Experimental: 2. Experimental section for biological experiments
Stock solutions of the test compounds
Stock solution of a concentration of 10 mM in pure DMSO (Sigma-Aldrich, Switzerland) were prepared of the 12 compounds, these stock solutions were used for all in vitro evaluations from activity tests in S. mansoni to the cytotoxic determinations in HUH7 hepatocyte-derived carcinoma cells, and in SH-SY5Y neuroblastoma cells.
The solutions were thoroughly vortexed and sonicated to enable a good dissolution of the compounds and homogenous stock solutions.
2.1 In vitro evaluations in S. mansoni
In vitro evaluation on newly transformed schistosomula (NTS)
To obtain newly transformed schistosomula (NTS) the lifecycle of S. mansoni (strain originates from West Africa, Liberia) is maintained at the Swiss Tropical and Public Health Institute (Swiss TPH). As previously described, cercariae are collected from infected Biomphalaria glabrata snails and then mechanically transformed into NTS. 8 After HBSS (Gibco, Waltham MA, USA) washing to get rid of the detached tails, the NTS were kept overnight (min. 12 h, max. 24 h) in culture medium at 37 °C and 5 % CO2 to complete their transformation process, before the drug sensitivity assay was started. The drug assays were performed in the same culture medium consisting of medium M199 (Gibco, Waltham MA, USA) supplemented with 5 % v/v inactivated fetal calf serum (iFCS; Bioconcept AG, Allschwil, Switzerland), 1% antibiotics mixture developed by Mäser et al., 9 and 1 % penicillin 10,000 U/mL, and streptomycin 10 mg/mL solution (Sigma-Aldrich, Buchs, Switzerland). The assay was performed in a 96-well plate, with 30−40 NTS per well in a final volume of 250 μL. NTS incubated in culture medium containing 0.5 % DMSO but no drug served as negative controls.
Microscopic evaluation was performed after 24, 48 and 72 h of incubation of the parasites at 37 °C and 5 % CO 2. Their overall viability was scored from 0 (death) to 3 (full viability) by a phenotypic screening method based on their motility, morphology, […]
and granularity. […]

## O=C1NCCN1c1ncc([N+](=O)[O-])s1 [Niridazole, niridazole]
Juvenile S. mansoni
  EC50: 1.8 µM
[1]
  XTT activity in HUH7 cells compared to DMSO control: no signs of toxicity
[2]; Schistosoma mansoni, 72 h incubation, 37 °C, 5% CO2
  EC50: > 50 µM
[2]; highest tested concentration 50 µM
  drug effect at 50 µM on S. mansoni NTS: not impaired
